Measurements published in patent US4276297A, “Pyridylaminotriazole therapeutic agents” (Pfizer Inc., priority 1979, dated 1981).

Experiments:
gastric acid secretion = assay: Inhibition of pentagastrin-induced gastric acid secretion in fasted Heidenhain pouch dogs; assay type: in vivo; conditions: intravenous; for inhibition in vivo at 1 mg/kg / inhibition in vivo at 5 mg/kg / inhibition in vivo at 10 mg/kg: Canis lupus familiaris, 1.5 h, 90 minutes after start of pentagastrin infusion, lowest acid output after drug vs mean acid output immediately prior, read-out: Acid Antisecretory Activity (% Inhibition)
Protocol: The activity of the compounds of the present invention, as anti-ulcer agents, is determined by their ability to pass at least one of the following two standard biological and/or pharmacological tests, viz., (1) measuring their ability to antagonise those particular actions of histamine which are not blocked by an antihistamine such as mepyramine, i.e., a measure of their ability to block certain histamine H2 -receptor sites; and (2) measuring their ability to inhibit gastric acid secretion in the stomachs of Heidenhain pouch dogs that had previously been treated with pentagastrin in order to stimulate the secretion of said acid (in their stomachs) for these particular purposes.
The following 3-amino-5-(4-pyridyl)-1,2,4-triazole final products of Examples I-V, VII-XII, XIV-XVI, XVIII-XX, XXII-XXIII, XXV-XXVI, XXVIII and XXXII, respectively, were tested for antiulcer activity in terms of their ability to inhibit gastric acid secretion in groups of fasted Heidenhain pouch dogs. No anesthetic was used in this study. The animals were first administered pentagastrin in order to stimulate acid output in their stomachs by the continuous infusion of said drug into a superified leg vein at doses earlier determined to stimulate near maximal acid output from the gastric pouch. Gastric juice was then collected at 30-minute intervals following the start of a pentagastrin infusion amd measured to the nearest one-tenth of a […] (0.1 ml.). Ten collections were taken for each dog during an experiment. Acid concentration was then determined by titrating 1.0 ml. of gastric juice to a pH value of pH 7.4 with 0.1 N aqueous sodium hydroxide, using an Autoburette and a glass electrode pH meter (Radiometer) for these purposes. The animals were then administered the test compounds at 10, 5.0 and 1.0 mg./kg., respectively, or the control vehicle alone, via the intravenous route of administration,at 90 minutes following the start of the pentagastrin infusion. Gastric antisecretory effects were thereafter calculated by comparing the lowest acid output after drug administration with the mean acid output immediately prior to same and the results obtained in this manner are reported in the following table, where the entries given for each individual compound are expressed in terms of percent inhibition (%) at the dose level indicated: […]

[1] = Signs of toxic side effects in Heidenhain pouch dogs after intravenous dosing; assay type: in vivo; conditions: 1.0 mg./kg. to 10 mg./kg.
Description: As previously indicated, the 3-amino-5-(4-pyridyl)-1,2,4-triazole compounds of this invention are all readily adapted to therapeutic use as histamine H2 -receptor inhibitors for the control of peptic ulcers, especially in view of their ability to inhibit the secretion of gastric acid in the body to a statistically significant degree. […] The other compounds of this invention also cause similar results. Furthermore, all the herein described compounds of this invention can be administered orally, for the present purposes at hand, without causing any significant untoward pharmacological side reactions to occur in the subject to whom they are so administered. In general, these compounds are ordinarily administered at dosage levels ranging from about 0.5 mg. to about 50 mg. per kg. of body weight per day, although variations will necessarily occur depending upon the condition and individual response of the subject being treated and the particular type of pharmaceutical formulation chosen.

Compound	inhibition in vivo at 1 mg/kg (gastric acid secretion)	inhibition in vivo at 5 mg/kg (gastric acid secretion)	inhibition in vivo at 10 mg/kg (gastric acid secretion)	further results
CCCNc1cc(-c2nc(N)n[nH]2)ccn1 [Example I, 3-amino-5-{2-[N-mono(n-propyl)amino]-4-pyridyl}-1,2,4-triazole]	33%	64%	–	–
CCCCCCNc1cc(-c2nc(N)n[nH]2)ccn1 [Example II, 3-amino-5-{2-[N-mono(n-hexyl)amino]-4-pyridyl}-1,2,4-triazole]	0%	–	40%	–
CCCCCCCCCCNc1cc(-c2nc(N)n[nH]2)ccn1 [Example III, 3-amino-5-{2-[N-mono(n-decyl)amino]-4-pyridyl}-1,2,4-triazole]	–	–	14%	–
C=CCNc1cc(-c2nc(N)n[nH]2)ccn1 [Example IV]	31%	–	–	–
CCN(C)c1cc(-c2nc(N)n[nH]2)ccn1 [Example IX, 3-amino-5-[2-(N-methyl-N-ethylamino)-4-pyridyl]-1,2,4-triazole]	53%	–	–	–
Nc1n[nH]c(-c2ccnc(NCCO)c2)n1 [Example V, 3-amino-5-{2-[N-mono(β-hydroxyethyl)amino]-4-pyridyl}-1,a,4-triazole]	23%	–	34%	–
COCCNc1cc(-c2nc(N)n[nH]2)ccn1 [Example VII, 3-amino-5-{2-[N-mono(β-methoxyethyl)amino]-4-pyridyl}-1,2,4-triazole]	11%	–	–	–
CN(C)c1cc(-c2nc(N)n[nH]2)ccn1 [Example VIII, 3-amino-5-[2-(N,N-dimethylamino)-4-pyridyl]-1,2,4-triazole]	48%	80%	96%	–
CCN(CC)c1cc(-c2nc(N)n[nH]2)ccn1 [Example X, 3-amino-5-[2-(N,N-diethylamino)-4-pyridyl]-1,2,4-triazole]	–	68%	–	–
CCNc1cc(-c2nc(NCC)n[nH]2)ccn1 [Example XI, 3-(monoethylamino)-5-[2-(N-monoethylamino)-4-pyridyl]-1,2,4-triazole]	38%	–	–	–
Nc1n[nH]c(-c2ccnc(NCCc3ccccc3)c2)n1 [Example XII, 3-amino-5-{2-[N-mono(β-phenylethyl)amino]-4-pyridyl}-1,2,4-triazole]	18%	–	50%	–
Nc1n[nH]c(-c2ccnc(NCc3ccccc3)c2)n1 [Example XIV, 3-amino-5-[2-(N-monobenzylamino)-4-pyridyl]-1,2,4-triazole]	21%	–	72%	–
CNc1cc(-c2nc(N)n[nH]2)ccn1 [Example XIX, 3-amino-5-[2-(N-monomethylamino)-4-pyridyl]-1,2,4-triazole]	50%	–	–	–
Nc1n[nH]c(-c2ccnc(NCc3ccc(Cl)cc3)c2)n1 [Example XV, 3-amino-5-{2-[N-mono(p-chlorobenzyl)amino]-4-pyridyl}-1,2,4-triazole]	21%	–	62%	–
Nc1cc(-c2nc(N)n[nH]2)ccn1 [Example XVIII, 3-amino-5-(2-aminopyridyl)-1,2,4-triazole monohydrate]	30%	86%	94%	–
Cc1ccc(CNc2cc(-c3nc(N)n[nH]3)ccn2)cc1 [Example XVI]	–	33%	–	–
CCNc1cc(-c2nc(N)n[nH]2)ccn1 [Example XX, 3-amino-5-[2-(N-monoethylamino)-4-pyridyl]-1,2,4-triazole]	51%	89%	93%	signs of toxic side effects [1]: without showing any substantial signs of toxic side effects; inhibit the pentagastrin-induced secretion of gastric acid (in words) (gastric acid secretion; 1.0 mg./kg. to 10 mg./kg., Heidenhain pouch dogs): consistently inhibit the pentagastrin-induced secretion of gastric acid from stomachs of Heidenhain pouch dogs to a significantly high degree
CCCCNc1cc(-c2nc(N)n[nH]2)ccn1 [Example XXII, 3-amino-5-{2-[N-mono(n-butyl)amino]-4-pyridyl}-1,2,4-triazole]	29%	–	–	–
CC(C)Nc1cc(-c2nc(N)n[nH]2)ccn1 [Example XXIII, 3-amino-5-[2-(N-monoisopropylamino)-4-pyridyl]-1,2,4-triazole]	35%	52%	–	–
Nc1n[nH]c(-c2ccnc(NCC(F)(F)F)c2)n1 [Example XXV, 3-amino-5-{2-[N-mono(2,2,2-trifluoroethyl)amino]-4-pyridyl}-1,2,4-triazole]	10%	–	–	–
CCNc1cc(-c2nc(NC)n[nH]2)ccn1 [Example XXVI, 3-(N-monomethylamino)-5-[2-(N-monoethylamino)-4-pyridyl]-1,2,4-triazole]	32%	64%	–	–
Cc1ccc(CNc2cc(-c3nc(N)n[nH]3)ccn2)cc1C [Example XXVIII, 3-amino-5-{2-[N-mono(3',4'-dimethylbenzyl)amino]-4-pyridyl}-1,2,4-triazole]	–	49%	–	–
CN(Cc1ccccc1)c1cc(-c2nc(N)n[nH]2)ccn1 [Example XXXII, 3-amino-5-[2-(N-methyl-N-benzylamino)-4-pyridyl]-1,2,4-triazole]	–	–	25%	–
